Test results from patent US12391768B2, “Antibodies to ticagrelor and methods of use” (MEDIMMUNE LIMITED, priority 2014, dated 2025).
Like-named read-outs stand apart in the source and are kept apart here.

Legend:
TICA0010 Fab = test: HTRF competition binding selectivity assay, TICA0010 His-Fab; design: species or system human; conditions: first series (Table 2), not DMSO normalised; read-out: IC50 (uM) for inhibition of biotinylated ticagrelor binding to TICA00l0 his-Fab
Description: (§1) Total Binding control wells were set up which contained all of the assay components above except that 5 ul assay buffer was added in place of the test selectivity compound addition. Negative Binding control wells were set up which contained all of the assay components included in the Total Binding control wells except that 5ul assay buffer was added in place of the His-Fab addition. Test compound serial titrations were either ½ or ⅓ depending on the particular experiment and top final assay compound concentrations were optimized on a compound specific basis. The concentration of biotinylated ticagrelor and His-Fab was optimized on a Fab specific basis in separate experiments. For the four Fabs investigated at the end of the lead isolation phase (TICA0010, TICA0049, TICA0053 and TICA0072) the final assay reagent concentrations used are set out in Table 1 below:
(§2) For the two Fabs investigated at the end of the lead optimization phase (TICA0162 and TICA0212) the final assay reagent concentrations used were 5nM biotinylated ticagrelor and 1 nM His Fab in both cases. […] In order to enable subsequent normalization of data to correct for any such vehicle related effects parallel titrations of DMSO alone were included in most experiments in which the final assay DMSO concentrations mirrored those of the test compound serial dilutions. At the end of the set up procedure that assay was incubated for 3hrs at RT before being read on an Envision plate reader using a standard read protocol.
(§3) The negative ratio value used in the calculation of % Delta F was derived from the Negative Binding control wells. % Delta F values were then used to calculate % Specific Binding values according to the equation below: Specific Binding (%)={(Sample Delta F−Negative Binding Delta F)/(Total Binding Delta F−Negative Binding Delta F)}×100
(§4) For standard calculations of % Specific Binding Total Binding Delta F was taken from Total Binding control wells which contained all of the aforementioned components of the assay but without inclusion of any competing test compound.
(§5) In those experiments where DMSO normalization was applied DMSO normalised % Specific Binding was calculated essentially according to the equation above except that in this case Total Binding Delta F was taken from wells containing all of the components in the Total Binding control wells as well as DMSO at a concentration equivalent to that in the relevant sample well.

TICA0072 Fab = test: HTRF competition binding selectivity assay, TICA0072 His-Fab; design: species or system human
Description: as §1, §2, §3, §4, §5
In a second series of experiments further selectivity data was generated for TICA0049 and TICA0072 Fabs in which a subset of four of the twelve compounds listed in FIG. 4 were retested along with ticagrelor, TAM and TIM and several adenosine related compounds. Here, in a refinement to the earlier investigations in Table 2, experiments were designed in order to enable normalisation of percent specific binding values to correct for any non-specific vehicle related effects due to DMSO. Example plotted data from this second series of experiments is shown in FIG. 5A-F along with tabulated IC50 values in Table 3.

TICA0212 Fab = test: HTRF competition binding selectivity assay, TICA0212 His-Fab; design: species or system human; conditions: Table 7, DMSO normalised; 5 nM biotinylated ticagrelor, 1 nM His Fab; read-out: IC50 (uM) for inhibition of biotinylated ticagrelor binding to TICA0212 Fab
Description: as §1
For the two Fabs investigated at the end of the lead optimization phase (TICA0162 and TICA0212) the final assay reagent concentrations used were 5nM biotinylated ticagrelor and 1 nM His Fab in both cases. […] At the end of the set up procedure that assay was incubated for 3hrs at RT before being read on an Envision plate reader using a standard read protocol. […]

[1] = Total plasma concentration of ticagrelor and TAM (LC-MS/MS); type: in vivo, mice
Description: Blood samples were collected in tubes with EDTA anticoagulant and centrifuged for 5 min at 10000× g at room temperature to prepare plasma. The plasma concentration of ticagrelor and TAM were determined by protein precipitation and liquid chromatography with tandem mass spectrometry (LC-MS/MS) as described in published method [Sillén H., et al., J Chromatogr B Analyt Technol Biomed Life Sci 2010; 878: 2299-306] with the following deviations. Plasma, 50 μL, was protein precipitated with 180 μl internal standard (D7-ZD6140) in acetonitrile. The liquid chromatographic system and mass spectrometer was an Acquity Ultra Performance LC coupled to a Xevo TQ-S mass spectrometer from Waters. Chromatographic separation was achieved on an Aquity UPLC® BEH C18 column (2.1×50 mm, particle size 1.7 um). Negative electrospray ionization was utilized. Eluent A was water with 10 mmol/L ammonium acetate, pH5 and eluent B was acetonitrile with 10 mmol/L ammonium acetate. Injection volume was 1 to 5 μL and the analytical gradient started with 4% B, increasing to 95% in 1.5 min, remaining until 2.3 min, before returning to initial conditions within 2.4 min followed by 0.3 min re-equilibration. No quality control samples were used in the analysis. The lower limit of quantification (LLOQ) was 0.005 μmol/L and the calibration range was 0.005 to 15.0 μM.
The total plasma concentrations of ticagrelor and TAM in presence of TICA0212/MEDI2452 were determined by adding 1% formic acid (FA: Sample, 1:5) followed by protein precipitation and LC-MS/MS as described above. Formic acid was added to the sample to facilitate dissociation of ticagrelor and TICA0212/MEDI2452.

[2] = molecular target: TICA0159 IgG binding to biotinylated ticagrelor; test: Second generation HTRF epitope competition assay
Description: Purified parent TICA0072 (scFv or Fab) was used as a benchmark in all experiments such that improvements in IC50 measured with optimized variants (scFv or Fab) could be expressed as fold improvements over parent TICA0072. Total Binding Control Wells contained all assay components except that 5 ul assay buffer was added in place of the purified scFv or Fab sample. Negative Binding control wells contained all of the components of the Total Binding control wells except that 5 ul of assay buffer was added in place of the TICA0072 IgG.
In both single point HTS and multipoint IC50 profiling versions of the assay. plates were incubated for 3 hrs at RT before being read on an Envision plate reader using a standard HTRF read protocol in which samples are excited at 337 nm and time resolved fluorescence emission is measured at both 620 nm and 665 nM.
Raw 665 nm and 620 nm counts were used to calculate Delta F (%) and % Specific Binding according to the equations described earlier in Assays 1 and 4, respectively. For multipoint secondary profiling experiments IC50 values were determined using Graphpad Prism software using sigmoidal dose response (variable slope) curve fitting (4 parameter logistic equation).
This assay was used only in multipoint IC50 profiling format (as opposed to HTS format) and was performed essentially identically to the method given in Assay 5 (above) for multipoint IC50 profiling of purified Fab variants in the parent TICA0072 IgG based epitope competition assay. The only difference being that TICA0159 IgG was used in place of TICA0072 IgG at the appropriate point in the assay set up but at the same 16nM final assay concentration. In all other respects this assay was performed exactly as described above in the multipoint secondary profiling version for purified Fab.

IC50 (TICA0010 Fab) | IC50 (TICA0072 Fab; first series (Table 2), not DMSO normalised, read-out: IC50 (uM) for inhibition of biotinylated ticagrelor binding to TICA0072 his-Fab) | IC50 (TICA0072 Fab; second series (Table 3), DMSO normalised, read-out: IC50 in competition binding selectivity studies, TICA0072) | IC50 (TICA0212 Fab) | ticagrelor plasma exposure, average ([1]; Example 11, after termination of the ticagrelor infusion, i.v., mice) | mean total plasma concentration ([1]; Example 12, end of ticagrelor infusion 300 μg/kg/min 20 min, mice) | mean total plasma concentration at time of tail cut ([1]; Example 12, vehicle treated mice, t=30 minutes) | Molecule | IC50 ([2]; Fab, 16 nM TICA0159 IgG, 1 nM biotinylated ticagrelor) | Fold Improved ([2]; IC50 relative to parent TICA0072 Fab) | improvement in IC50 relative to the parent TICA0072 Fab ([2]; second generation epitope competition assay)
0.122 µM | 0.113 µM | 0.356 µM | 0.035 µM | 1.4 µM | 7.6 µM | 2.4 µM | CCCSc1nc(N[C@@H]2C[C@H]2c2ccc(F)c(F)c2)c2nnn([C@@H]3C[C@H](OCCO)[C@@H](O)[C@H]3O)c2n1 [Ticagrelor, (1S,2S,3R,5S)-3-[7-{[(1R,2S)-2-(3,4-difluorophenyl)cyclopropyl]amino}-5-(propylthio)-3H-[1,2,3]triazolo[4,5-d]pyrimidin-3-yl]-5-(2-hydroxyethoxy)cyclopentane-1,2-diol] | – | – | –
– | – | – | – | – | – | – | TICA0212: combination of TICA0162 and TICA0152; VH SEQ ID NO:72, VL SEQ ID NO:77 (antibody, listed as Homo sapiens, V domains shown) VH: QVQLQESGAEVKKPGSSVRVSCKASGGTFDSYSIHWVRQAPGQGLEWMGGIIPAFGTLSSAQDFQARVTISADKSTSTAYMELSGLRSEDTAVYYCARGSFDYYFWSASHPPNDALAIWGQGTLVTVSS VL: QSVVTQPPSVSAAPGQKVTISCSGSNSDIGNNYVSWYQQLPGTAPKLLIYDNNKRPSGIPDRFSGSKSGTSATLAITGLQAGDEADYYCGTWLYDRAVGLFGGGTKVTVL | 12 nM | 142.8 | approximately 2 log
